Values of other authors as cited in paper PMC12042267, “Expanding the Family of Monosubstituted 15-Membered Pyridine-Based Macrocyclic Ligands for Mn(II) Complexation in the Context of MRI” (Inorganic Chemistry, 2025).
Like-named read-outs stand apart in the source and are kept apart here.

Assays:
[1] = Zn(II), cited from earlier work
[2] = Cu(II), cited from earlier work
[3] = Ca(II), cited from earlier work
[4] = cited from earlier work
[5] = Mn(II) complex, cited from earlier work; for dissociation half-life t1/2: calculated for pH 7.4
[6] = cited from earlier work; remark: listed apart in the source
[7] = cited from earlier work; remark: listed apart in the source
[8] = cited from earlier work; for r1p298: 298 K and 0.47 T ref 21; for r1 (relaxivity): 20 MHz, 0.47 T ref 28
[9] = cited from earlier work; remark: listed apart in the source
[10] = Mn(II) complex, cited from earlier work
[11] = 0.15 NaCl and 2 mM concentration ref 21, 58

c1cc2nc(c1)CNCCNCCNCCNC2 [15-pyN5]
log KHML ([1]; 0.1 M NMe4Cl ref 28): 2.45 | log KML ([1]; 0.1 M NMe4Cl ref 28): 16.27 | log KML(OH) ([1]; 0.1 M NMe4Cl ref 28): -11.18 | log KML ([2]; 0.1 M NMe4Cl ref 28): 21.84 | log KML(OH) ([2]; 0.1 M NMe4Cl ref 28): -12.30 | log KML ([3]; 0.1 M NMe4Cl ref 28): 2.97 | log K1^H ([4]; 0.1 M NMe4Cl ref 28): 9.40 | log K2^H ([4]; 0.1 M NMe4Cl ref 28): 8.54 | log K3^H ([4]; 0.1 M NMe4Cl ref 28): 5.28 | log K1^H ([4]; 0.1 NaClO4 ref 40): 9.43 | log K2^H ([4]; 0.1 NaClO4 ref 40): 8.80 | log K3^H ([4]; 0.1 NaClO4 ref 40): 5.28 | log K1^H ([4]; 0.1 NaClO4 ref 41): 9.11 | log K2^H ([4]; 0.1 NaClO4 ref 41): 8.82 | log K3^H ([4]; 0.1 NaClO4 ref 41): 5.27 | k1 ([5]; Zn(II) transmetalation ref 28): 423 M^–1 s^–1 | k2 ([5]; Zn(II) transmetalation ref 28): 1.0 × 10^7 M^–2 s^–1 | k4 ([5]; Zn(II) transmetalation ref 28): 1.7 × 10^4 M^–2 s^–1 | dissociation half-life t1/2 ([5]; Zn(II) ref 28): 11.0 h | log KML ([6]; Mn(II), 0.1 M NMe4Cl ref 28): 10.89 | log KML(OH) ([6]; Mn(II), 0.1 M NMe4Cl ref 28): -11.52 | log KHML ([6]; Mn(II), 0.1 M NMe4Cl, log KMnHL in Table 5 ref 28): 4.27 | log KHML ([6]; Mn(II), 0.1 M NaClO4 ref 40): 4.20 | log KML ([6]; Mn(II), 0.1 M NaClO4 ref 40): 11.64 | log KHML ([6]; Mn(II), 0.1 M NaClO4 ref 41): 4.51 | log KML ([6]; Mn(II), 0.1 M NaClO4 ref 41): 11.12 | pMn ([6]; pH 7.4, cMn = clig = 10^–5 M ref 28): 6.37 | pMn ([6]; pH 7.4, cMn = clig = 10^–5 M ref 40): 6.60 | pMn ([6]; pH 7.4, cMn = clig = 10^–5 M ref 41): 6.59

O=C(O)CN1CCOCCOCCNCc2cccc(n2)C1 [L1]
log KHML ([1]; I = 0.15 M NaCl, 25 °C ref 30): 2.80 | log KML ([1]; I = 0.15 M NaCl, 25 °C ref 30): 13.12 | log KHML ([2]; I = 0.15 M NaCl, 25 °C ref 30): 2.67 | log KML ([2]; I = 0.15 M NaCl, 25 °C ref 30): 15.86 | log KML(OH) ([2]; I = 0.15 M NaCl, 25 °C ref 30): -9.7 | log KHML ([3]; I = 0.15 M NaCl, 25 °C ref 30): 6.37 | log KML ([3]; I = 0.15 M NaCl, 25 °C ref 30): 5.51 | log K1^H ([4]; I = 0.15 M NaCl, 25 °C ref 30): 8.86 | log K2^H ([4]; I = 0.15 M NaCl, 25 °C ref 30): 8.03 | log K3^H ([4]; I = 0.15 M NaCl, 25 °C ref 30): 1.9 | k0 ([5]; Zn(II) transmetalation ref 30): (4.1 ± 0.3) × 10^–3 s^–1 | k1 ([5]; Zn(II) transmetalation ref 30): 1691 ± 41 M^–1 s^–1 | dissociation half-life t1/2 ([5]; Zn(II) ref 30): 0.0467 h | log KML ([6]; Mn(II), I = 0.15 M NaCl, 25 °C ref 30): 11.06 | log KHML ([6]; Mn(II), I = 0.15 M NaCl, 25 °C, log KMnHL in Table 5 ref 30): 3.82 | pMn ([6]; pH 7.4, cMn = clig = 10^–5 M ref 30): 6.95

O.O=C([O-])CN1CCNCc2cccc(n2)CN(CC(=O)[O-])CC1.[Mn+2] [Mn(3,6-PC2A)]
kex^298 [7]: 14.0 ± 2.5 10^7 s^–1 | ΔH^‡ [7]: 38.2 ± 3.9 kJ mol^–1 | r1p298 [8]: 2.72 mM^–1 s^–1 | Eox [9, 11]: +862 mV

O.O=C([O-])CN1CCNCCN(CC(=O)[O-])Cc2cccc(n2)C1.[Mn+2] [Mn(3,9-PC2A)]
kex^298 [7]: 12.6 ± 1.2 10^7 s^–1 | ΔH^‡ [7]: 37.5 ± 2.4 kJ mol^–1 | r1p298 [8]: 2.91 mM^–1 s^–1 | Eox [9, 11]: +838 mV

O.O.[Mn+2].c1cc2nc(c1)CNCCOCCOCCNC2 [Mn(15-pyN3O2)]
AO/ℏ [7]: 38.6 10^6 rad s^–1 | ErH [7]: 16.1 kJ mol^–1 | kex^298 [7]: 0.38 10^7 s^–1 | ΔH^‡ [7]: 35.3 kJ mol^–1 | ΔS^‡ [7]: –1.0 J mol^–1K^–1 | Δ^2 [7]: 6.6 10^18 s^–2 | τrH^298 [7]: 40.3 ps | τv^298 [7]: 3.3 ps | r1 (relaxivity) ([8]; 25 °C): 4.48 mM^–1 s^–1 | r1 (relaxivity) ([8]; 37 °C): 3.61 mM^–1 s^–1 | Eox [9]: 912 mV

O=C(O)CN1CCNCc2cccc(n2)CNCC1 [PC1A]
log KHML ([1]; 0.1 M NMe4Cl ref 20): 3.03 | log KML ([1]; 0.1 M NMe4Cl ref 20): 17.01 | log KHML ([2]; 0.1 M NMe4Cl ref 20): 2.09 | log KML ([2]; 0.1 M NMe4Cl ref 20): 18.62 | log KHML ([3]; 0.1 M NMe4Cl ref 20): 7.39 | log KML ([3]; 0.1 M NMe4Cl ref 20): 6.04 | log K1^H ([4]; 0.1 M NMe4Cl ref 20): 10.47 | log K2^H ([4]; 0.1 M NMe4Cl ref 20): 8.71 | log K3^H ([4]; 0.1 M NMe4Cl ref 20): 2.79 | k1 ([5]; Zn(II) transmetalation ref 20): 2020 ± 40 M^–1 s^–1 | k2 ([5]; Zn(II) transmetalation ref 20): (8.0 ± 0.3) × 10^7 M^–2 s^–1 | dissociation half-life t1/2 ([5]; Zn(II) ref 20): 2.4 h | log KML ([6]; Mn(II), 0.1 M NMe4Cl ref 20): 11.54 | log KHML ([6]; Mn(II), 0.1 M NMe4Cl, log KMnHL in Table 5 ref 20): 4.95 | pMn ([6]; pH 7.4, cMn = clig = 10^–5 M ref 20): 8.10

O=C(O)CN1CCN(Cc2ccc(-c3ccccc3)cc2)CCN(CC(=O)O)Cc2cccc(n2)C1 [PC2A-BP]
log KHML ([1]; I = 0.15 M NaCl, 25 °C ref 23): 1.71 | log KML ([1]; I = 0.15 M NaCl, 25 °C ref 23): 18.05 | log KHML ([2]; I = 0.15 M NaCl, 25 °C ref 23): 1.04 | log KML ([2]; I = 0.15 M NaCl, 25 °C ref 23): 22.30 | log KML ([3]; I = 0.15 M NaCl, 25 °C ref 23): 7.94 | log K1^H ([4]; I = 0.15 M NaCl, 25 °C ref 23): 10.45 | log K2^H ([4]; I = 0.15 M NaCl, 25 °C ref 23): 6.93 | log K3^H ([4]; I = 0.15 M NaCl, 25 °C ref 23): 2.36 | log K4^H ([4]; I = 0.15 M NaCl, 25 °C ref 23): 1.64 | log KML ([6]; Mn(II), I = 0.15 M NaCl, 25 °C ref 23): 14.86 | pMn ([6]; pH 7.4, cMn = clig = 10^–5 M ref 23): 8.35 | k1 ([10]; Cu(II) transmetalation ref 23): 16.9 ± 0.2 M^–1 s^–1 | dissociation half-life t1/2 ([10]; calculated for pH 7.4, Cu(II) ref 23): 286.2 h

Mn(EDTA)
Eox [9, 11]: +769 mV
